{"source": "patent US20200339625A1", "about": "“NOVEL RADIOMETAL-BINDING COMPOUNDS FOR DIAGNOSIS OR TREATMENT OF PROSTATE SPECIFIC MEMBRANE ANTIGEN-EXPRESSING CANCER” (PROVINCIAL HEALTH SERVICES AUTHORITY, priority 2017, published 2020)", "key": {"PSMA on LNCaP cells": {"target": "T1, PSMA on LNCaP cells (Homo sapiens, UniProt Q04609)", "T1 construct": "endogenous in cells; host or cells: LNCaP prostate cancer cells", "T1 sequence (Q04609 whole entry)": "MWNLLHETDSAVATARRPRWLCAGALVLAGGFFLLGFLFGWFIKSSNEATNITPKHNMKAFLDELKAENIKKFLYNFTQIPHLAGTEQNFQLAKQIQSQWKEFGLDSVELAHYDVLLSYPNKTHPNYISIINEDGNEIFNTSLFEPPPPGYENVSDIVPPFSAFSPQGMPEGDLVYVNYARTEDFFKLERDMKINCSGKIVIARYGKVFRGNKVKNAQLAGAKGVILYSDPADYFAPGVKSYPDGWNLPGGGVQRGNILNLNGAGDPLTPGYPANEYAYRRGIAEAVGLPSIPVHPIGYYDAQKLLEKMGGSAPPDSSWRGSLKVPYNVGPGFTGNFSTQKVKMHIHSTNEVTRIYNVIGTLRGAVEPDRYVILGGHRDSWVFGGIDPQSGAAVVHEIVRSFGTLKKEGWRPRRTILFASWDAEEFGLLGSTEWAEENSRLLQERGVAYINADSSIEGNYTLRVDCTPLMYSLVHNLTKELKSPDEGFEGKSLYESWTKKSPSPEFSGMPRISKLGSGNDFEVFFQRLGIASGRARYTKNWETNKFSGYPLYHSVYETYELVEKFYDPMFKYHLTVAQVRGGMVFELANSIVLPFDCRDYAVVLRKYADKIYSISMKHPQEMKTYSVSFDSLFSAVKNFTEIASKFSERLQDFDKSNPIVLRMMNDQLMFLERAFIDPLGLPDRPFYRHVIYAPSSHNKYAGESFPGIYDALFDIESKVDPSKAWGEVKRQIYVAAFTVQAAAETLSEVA", "assay": "In vitro competition binding assay (displacement of 18F-DCFPyL)", "conditions": "for Ki: inhibition of 18F-DCFPyL binding to PSMA on LNCaP cells, n=3", "protocol": "1.14 In Vitro Competition Binding Assay\nIn vitro competition binding assays were conducted as previously reported using LNCaP prostate cancer cells and ^18F-DCFPyL as the radioligand. ^18 Briefly, LNCaP cells (400,000/well) were plated onto a 24-well poly-D-lysine coated plate for 48 h. Growth media was removed and replaced with HEPES buffered saline (50 mM HEPES, pH 7.5, 0.9% sodium chloride) and the cells were incubated for 1 h at 37° C. ^18F-DCFPyL (0.1 nM) was added to each well (in triplicate) containing various concentrations ([…]) of tested compounds (Lu-PSMA-617 or Lu-HTK01169). Non-specific binding was determined in the presence of 10 μM non-radiolabeled DCFPyL. The assay mixtures were further incubated for 1 h at 37° C. with gentle agitation. Then, the buffer and hot ligand were removed, and cells were washed twice with cold HEPES buffered saline. To harvest the cells, 400 μL of 0.25% trypsin solution was added to each well. Radioactivity was measured on a PerkinElmer (Waltham, Mass.) Wizard2 2480 automatic gamma counter. Nonlinear regression analyses and Ki calculations were performed using the GraphPad Prism 7 software."}, "[1]": {"test_system": "metastatic prostate cancer", "conditions": "advanced metastatic prostate cancer patients; cited from earlier work"}, "[2]": {"test_system": "mice bearing PSMA-expressing LNCAP cancer xenografts", "assay": "Biodistribution of 68Ga-labeled compounds", "assay_type": "in vivo", "method_in_brief": "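NOD-SCID IL2RγKO male mice carried subcutaneous LNCaP xenografts grown to 5-8 mm over 5-6 weeks. Organs and blood were collected at 1 or 3 h after injection of the radiotracer and gamma-counted. Uptake was normalized to injected dose via a standard curve and expressed as %ID/g.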"}, "[3]": {"test_system": "mice bearing LNCaP tumor xenografts", "assay": "PET/CT imaging of 68Ga-labeled compounds", "assay_type": "in vivo", "conditions": "PET/CT images", "method_in_brief": "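Male NOD SCID IL2Rγ KO mice bore subcutaneous LNCaP xenografts (1×10^7 cells, tumours 5-8 mm) and received 6-8 MBq tracer via tail vein under 2% isoflurane. At 50 min p.i., a 10-min CT and a 10-min static PET were acquired. For the 3 h time point, scanning began at 170 min p.i. with a 15-min static PET.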"}}, "data": [{"smiles": "O=C([O-])CN1CCN(CC(=O)[O-])CCN(CC(=O)NCCCC[C@H](NC(=O)[C@H](CCC(=O)O)NC(=O)CCCc2ccc(I)cc2)C(=O)NC[C@H]2CC[C@H](C(=O)N[C@@H](Cc3ccc4ccccc4c3)C(=O)NCCCC[C@H](NC(=O)N[C@@H](CCC(=O)O)C(=O)O)C(=O)O)CC2)CCN(CC(=O)[O-])CC1.[Lu+3]", "note": "[Lu-HTK01169]", "values": [{"measurement": "Ki", "setting": "PSMA on LNCaP cells", "result": "0.04 ± 0.01", "unit": "nM"}, {"measurement": "improvement in PSMA binding compared to Lu-PSMA-617", "setting": "PSMA on LNCaP cells; ratio of Ki values", "result": 6, "unit": "fold"}]}, {"smiles": "O=C([O-])CC[C@H](NC(=O)N[C@@H](CCCCNC(=O)[C@H](Cc1ccc2ccccc2c1)NC(=O)[C@H]1CC[C@H](CNC(=O)CN2CCN(CC(=O)[O-])CCN(CC(=O)[O-])CCN(CC(=O)[O-])CC2)CC1)C(=O)[O-])C(=O)[O-].[225Ac].[H+].[H+].[H+]", "note": "[^225Ac-PSMA-617]", "values": [{"measurement": "response", "setting": "[1]", "result": "impressive responses"}]}, {"smiles": "O=C([O-])CN1CCN(CC(=O)[O-])CCN(CC(=O)NCC2CCC(C(=O)N[C@@H](Cc3ccc4ccccc4c3)C(=O)NCCCC[C@H](NC(=O)N[C@@H](CCC(=O)O)C(=O)O)C(=O)O)CC2)CCN(CC(=O)[O-])CC1.[Lu+3]", "note": "(stereo partly drawn) [Lu-PSMA-617, reference compound]", "values": [{"measurement": "Ki", "setting": "PSMA on LNCaP cells", "result": "0.24 ± 0.06", "unit": "nM"}]}, {"smiles": "O=C([O-])CN1CCN(CC(=O)[O-])CCN(CC(=O)NCC2CCC(C(=O)NC(Cc3c4ccccc4cc4ccccc34)C(=O)NCCCCC(NC(=O)NC(CCC(=O)O)C(=O)O)C(=O)O)CC2)CCN(CC(=O)[O-])CC1.[68Ga+3]", "note": "(stereo not drawn) [^68Ga-HTK03041]", "values": [{"measurement": "Adrenal glands uptake", "setting": "[2]; 1 h post-injection", "result": "8.90 ± 2.56", "unit": "% ID/g"}, {"measurement": "Blood uptake", "setting": "[2]; 1 h post-injection", "result": "1.43 ± 0.30", "unit": "% ID/g"}, {"measurement": "Bone uptake", "setting": "[2]; 1 h post-injection", "result": "1.29 ± 0.45", "unit": "% ID/g"}, {"measurement": "Brain uptake", "setting": "[2]; 1 h post-injection", "result": "0.10 ± 0.05", "unit": "% ID/g"}, {"measurement": "Fat uptake", "setting": "[2]; 1 h post-injection", "result": "2.06 ± 0.59", "unit": "% ID/g"}, {"measurement": "Heart uptake", "setting": "[2]; 1 h post-injection", "result": "1.82 ± 0.21", "unit": "% ID/g"}, {"measurement": "Intestine uptake", "setting": "[2]; 1 h post-injection", "result": "1.14 ± 0.18", "unit": "% ID/g"}, {"measurement": "Kidneys uptake", "setting": "[2]; 1 h post-injection", "result": "170 ± 26.4", "unit": "% ID/g"}, {"measurement": "Lacrimal uptake", "setting": "[2]; 1 h post-injection", "result": "2.44 ± 1.79", "unit": "% ID/g"}, {"measurement": "Liver uptake", "setting": "[2]; 1 h post-injection", "result": "1.38 ± 0.25", "unit": "% ID/g"}, {"measurement": "Lungs uptake", "setting": "[2]; 1 h post-injection", "result": "4.32 ± 0.62", "unit": "% ID/g"}, {"measurement": "Muscle uptake", "setting": "[2]; 1 h post-injection", "result": "0.75 ± 0.09", "unit": "% ID/g"}, {"measurement": "Pancreas uptake", "setting": "[2]; 1 h post-injection", "result": "1.47 ± 0.16", "unit": "% ID/g"}, {"measurement": "Salivary uptake", "setting": "[2]; 1 h post-injection", "result": "4.99 ± 0.88", "unit": "% ID/g"}, {"measurement": "Seminal uptake", "setting": "[2]; 1 h post-injection", "result": "1.03 ± 0.27", "unit": "% ID/g"}, {"measurement": "Spleen uptake", "setting": "[2]; 1 h post-injection", "result": "8.95 ± 3.22", "unit": "% ID/g"}, {"measurement": "Stomach uptake", "setting": "[2]; 1 h post-injection", "result": "0.41 ± 0.11", "unit": "% ID/g"}, {"measurement": "Tail uptake", "setting": "[2]; 1 h post-injection", "result": "1.36 ± 0.45", "unit": "% ID/g"}, {"measurement": "Testes uptake", "setting": "[2]; 1 h post-injection", "result": "1.34 ± 0.22", "unit": "% ID/g"}, {"measurement": "Thyroid uptake", "setting": "[2]; 1 h post-injection", "result": "2.48 ± 0.44", "unit": "% ID/g"}, {"measurement": "Tumor uptake", "setting": "[2]; 1 h post-injection", "result": "23.1 ± 6.11", "unit": "% ID/g"}, {"measurement": "Tumor:Blood ratio", "setting": "[2]; 1 h post-injection", "result": "17.3 ± 7.24"}, {"measurement": "Tumor:Muscle ratio", "setting": "[2]; 1 h post-injection", "result": "31.6 ± 12.1"}, {"measurement": "Tumor:kidney ratio", "setting": "[2]; 1 h post-injection", "result": "0.14 ± 0.04"}, {"measurement": "Urine uptake", "setting": "[2]; 1 h post-injection", "result": "173 ± 93.01", "unit": "% ID/g"}, {"measurement": "Adrenal glands uptake", "setting": "[2]; 3 h post-injection", "result": "4.04 ± 1.20", "unit": "% ID/g"}, {"measurement": "Blood uptake", "setting": "[2]; 3 h post-injection", "result": "0.83 ± 0.27", "unit": "% ID/g"}, {"measurement": "Bone uptake", "setting": "[2]; 3 h post-injection", "result": "0.98 ± 0.40", "unit": "% ID/g"}, {"measurement": "Brain uptake", "setting": "[2]; 3 h post-injection", "result": "0.06 ± 0.02", "unit": "% ID/g"}, {"measurement": "Fat uptake", "setting": "[2]; 3 h post-injection", "result": "1.06 ± 0.20", "unit": "% ID/g"}, {"measurement": "Heart uptake", "setting": "[2]; 3 h post-injection", "result": "0.93 ± 0.17", "unit": "% ID/g"}, {"measurement": "Intestine uptake", "setting": "[2]; 3 h post-injection", "result": "0.67 ± 0.09", "unit": "% ID/g"}, {"measurement": "Kidneys uptake", "setting": "[2]; 3 h post-injection", "result": "121 ± 37.6", "unit": "% ID/g"}, {"measurement": "Lacrimal uptake", "setting": "[2]; 3 h post-injection", "result": "2.82 ± 3.84", "unit": "% ID/g"}, {"measurement": "Liver uptake", "setting": "[2]; 3 h post-injection", "result": "0.82 ± 0.15", "unit": "% ID/g"}, {"measurement": "Lungs uptake", "setting": "[2]; 3 h post-injection", "result": "2.14 ± 0.39", "unit": "% ID/g"}, {"measurement": "Muscle uptake", "setting": "[2]; 3 h post-injection", "result": "0.40 ± 0.06", "unit": "% ID/g"}, {"measurement": "Pancreas uptake", "setting": "[2]; 3 h post-injection", "result": "0.71 ± 0.12", "unit": "% ID/g"}, {"measurement": "Salivary uptake", "setting": "[2]; 3 h post-injection", "result": "2.11 ± 0.57", "unit": "% ID/g"}, {"measurement": "Seminal uptake", "setting": "[2]; 3 h post-injection", "result": "4.56 ± 9.00", "unit": "% ID/g"}, {"measurement": "Spleen uptake", "setting": "[2]; 3 h post-injection", "result": "4.19 ± 1.58", "unit": "% ID/g"}, {"measurement": "Stomach uptake", "setting": "[2]; 3 h post-injection", "result": "0.26 ± 0.06", "unit": "% ID/g"}, {"measurement": "Tail uptake", "setting": "[2]; 3 h post-injection", "result": "0.86 ± 0.73", "unit": "% ID/g"}, {"measurement": "Testes uptake", "setting": "[2]; 3 h post-injection", "result": "0.89 ± 0.12", "unit": "% ID/g"}, {"measurement": "Thyroid uptake", "setting": "[2]; 3 h post-injection", "result": "1.19 ± 0.23", "unit": "% ID/g"}, {"measurement": "Tumor uptake", "setting": "[2]; 3 h post-injection", "result": "28.2 ± 9.17", "unit": "% ID/g"}, {"measurement": "Tumor:Blood ratio", "setting": "[2]; 3 h post-injection", "result": "36.6 ± 15.4"}, {"measurement": "Tumor:Muscle ratio", "setting": "[2]; 3 h post-injection", "result": "73.8 ± 30.9"}, {"measurement": "Tumor:kidney ratio", "setting": "[2]; 3 h post-injection", "result": "0.26 ± 0.13"}, {"measurement": "Urine uptake", "setting": "[2]; 3 h post-injection", "result": "171 ± 93.3", "unit": "% ID/g"}, {"measurement": "change of tumor uptake from 1 h to 3 h post-injection", "setting": "[3]", "result": "increases from 1 h to 3 h post-injection"}, {"measurement": "excretion pathway", "setting": "[3]", "result": "excreted mainly via the renal pathway"}, {"measurement": "tumor uptake (qualitative comparison)", "setting": "[3]; compounds of FIG. 13", "result": "highest tumor uptake"}]}]}
